According to publication PMC8432116, “Drug–Drug Interaction between Tacrolimus and Vonoprazan in Kidney Transplant Recipients” (Journal of Clinical Medicine, 2021):
Several values for one entry are separate records, joined by “and”; a condition that tells them apart may be missing. Equal entries are not always repeated. Where two headings read alike, the source gives them in different places. Blank lines part the entries; values can stand above or below the compound they belong to.

Columns and labels:
[1] = Estimated maximum concentration in the intestinal lumen according to DDI guidelines; design: species or system human
Description: P-glycoprotein, a drug efflux transporter expressed in the intestinal lumen, can be considered in addition to CYP as the mechanism of the DDIs between vonoprazan and tacrolimus.

[2] = Laboratory data of liver and kidney function before and after the switch; format: in vivo, human; details: during the named PPI phase; 18 recipients on tacrolimus
Protocol: (§1) Eighteen kidney transplant recipients were recruited for this study from February 2015 to July 2020 (Table 1). The recipients were treated with tacrolimus-based immunosuppression, tacrolimus QD (Graceptor®; Astellas Pharma, Tokyo, Japan) in combination with mycophenolate mofetil and corticosteroids. The initial dose of tacrolimus QD was 0.15–0.20 mg/kg/day for 3–7 days before transplantation. The patients’ PPIs were switched from oral rabeprazole to vonoprazan (TAK-438; Takecab®; Takeda Pharmaceutical Company Limited., Tokyo, Japan) for intensive gastric acid suppression on postoperative days (POD) 3–43. The median (range) dose of oral rabeprazole and vonoprazan were 0.16 (0.11–0.22) and 0.31 (0.11–0.44) mg/kg/day, respectively (Table 1). Blood concentrations of tacrolimus were […] when the rabeprazole was switched to vonoprazan. Liver function for the patients was normal. […] Major symptoms due to gastric ulcer, retching, and heartburn disappeared by switching from rabeprazole to vonoprazan.

P-glycoprotein = tested on: P-glycoprotein; design: method as in PMID 15467223; details: read-out: IC50 for inhibition of P-glycoprotein transporter activity; cited from earlier work
[3] = Whole blood trough concentration and C/D ratio of tacrolimus before and after switching PPI from rabeprazole to vonoprazan; format: in vivo, human; details: for Trough tacrolimus concentration, typical case / C/D ratio of tacrolimus, typical case: single case; for Percentage increase of the C/D ratio: vonoprazan coadministration; for Tacrolimus trough concentration, median (range): whole blood, 18 kidney transplant recipients
Protocol: as §1
Whole blood concentrations of tacrolimus were measured using the ARCHITECT chemiluminescent immunoassay system (Abbot, Abbot Park, IL, USA). Blood samples were collected in the morning just before the morning administration of tacrolimus to determine the trough levels. Tacrolimus dose was adjusted to achieve predefined target concentration ranges of 5–10 ng/mL (POD −3–14), 7–8 ng/mL (POD 14–28), and 5–8 ng/mL (after POD 28). The change in concentration/dose (C/D; in nanogram per milliliter/milligram per kilogram) ratio of tacrolimus before and after initiating oral vonoprazan was calculated to assess the DDIs.
Genomic DNA was extracted from peripheral whole blood samples using the QIAamp DNA blood kit system (Qiagen, Hilden, Germany) according to the manufacturer’s instruction. Subjects were genotyped for CYP2C19 rs4244285 (CYP2C19*2), CYP2C19 rs4986893 (CYP2C19*3), and CYP3A5 rs776746 (CYP3A5*3) polymorphisms. These variants were identified by real-time polymerase chain reaction (PCR) using a TaqMan® Drug Metabolism Genotyping Assays (Thermo Fisher Scientific, Waltham, MA, USA) with a QuantStudio 3 real-time PCR system (Thermo Fisher Scientific). Recipients were categorized into two groups based on the CYP2C19 genotypes (extensive metabolizer (EM; CYP2C19*1/*1)), intermediate metabolizer (IM; CYP2C19*1/*2 and *1/*3), and poor metabolizer (PM; *2/*2, *2/*3, and *3/*3)] and the CYP3A5 genotypes (CYP3A5*1 carrier (CYP3A5*1/*1 and CYP3A5*1/*3)) and the noncarrier (CYP3A5*3/*3)].
The Wilcoxon signed-rank test was used to compare the difference in the concentration and C/D ratio of tacrolimus before and after switching to vonoprazan. Differences in the concentration and C/D ratio of tacrolimus among the genotypes were compared by the Mann–Whitney U test. The statistical analyses were carried out using SPSS 26.0 (IBM, Tokyo, Japan). Results with a p value of <0.05 were considered statistically significant.

[4] = Clinical observation of adverse events and gastric symptoms after switching; format: in vivo, human
Protocol: as §1

[5] = cited from earlier work; for Increase in C/D ratio of tacrolimus after the conversion: outpatient phase of post-transplantation
[6] = design: method as in PMID 19177031; details: cited from earlier work
[7] = CYP2C19 EM, n=5, rabeprazole to vonoprazan
[8] = CYP2C19 IM/PM, n=13, Rabeprazole
[9] = CYP2C19 IM/PM, n=13, Vonoprazan
[10] = CYP2C19 IM/PM, n=13, rabeprazole to vonoprazan
[11] = CYP3A5 *1 carrier, n=5, Rabeprazole
[12] = CYP3A5 *1 carrier, n=5, Vonoprazan
[13] = CYP3A5 *1 carrier, n=5, rabeprazole to vonoprazan
[14] = CYP3A5 *1 noncarrier, n=13, Rabeprazole
[15] = CYP3A5 *1 noncarrier, n=13, Vonoprazan
[16] = CYP3A5 *1 noncarrier, n=13, rabeprazole to vonoprazan
[17] = rabeprazole to vonoprazan, 18 recipients
[18] = vonoprazan coadministration vs rabeprazole

- Estimated maximum concentration in the intestinal lumen ([1]; administered at 10 mg): 111 µM
- Alanine aminotransferase, median (range) [2]: 28 IU/L
- Aspartate aminotransferase, median (range) [2]: 16 IU/L
- Blood urine nitrogen, median (range) [2]: 24.2 (9.8–78.7) mg/dL
- Serum creatinine, median (range) [2]: 1.55 (0.62–4.31) mg/dL
SMILES: COCCCOc1ccnc(C[S+]([O-])c2nc3ccccc3[nH]2)c1C (stereo not shown) [Rabeprazole]
- IC50 (P-glycoprotein): ≥ 100 µM

- Tacrolims C/D Ratio, median ([3]; CYP2C19 EM, n=5, Rabeprazole): 25.6 (ng/mL)/(mg/kg/day)
- Tacrolimus Concentration, median ([3]; CYP2C19 EM, n=5, Rabeprazole): 4.0 ng/mL
- Tacrolims C/D Ratio, median ([3]; CYP2C19 EM, n=5, Vonoprazan): 40.7 (ng/mL)/(mg/kg/day)
- Tacrolimus Concentration, median ([3]; CYP2C19 EM, n=5, Vonoprazan): 8.5 ng/mL
- ΔC/D Ratio, median [3, 7]: 15.1
- ΔConcentration, median [3, 7]: 3.6 ng/mL
- Tacrolims C/D Ratio, median [3, 8]: 39.5 (ng/mL)/(mg/kg/day)
- Tacrolimus Concentration, median [3, 8]: 5.3 ng/mL
- Tacrolims C/D Ratio, median [3, 9]: 50.4 (ng/mL)/(mg/kg/day)
- Tacrolimus Concentration, median [3, 9]: 7.7 ng/mL
- ΔC/D Ratio, median [3, 10]: 6.3
- ΔConcentration, median [3, 10]: 3 ng/mL
- Tacrolims C/D Ratio, median [3, 11]: 36.9 (ng/mL)/(mg/kg/day)
- Tacrolimus Concentration, median [3, 11]: 5.3 ng/mL
- Tacrolims C/D Ratio, median [3, 12]: 45.1 (ng/mL)/(mg/kg/day)
- Tacrolimus Concentration, median [3, 12]: 8.5 ng/mL
- ΔC/D Ratio, median [3, 13]: 14.6
- ΔConcentration, median [3, 13]: 2.8 ng/mL
- Tacrolims C/D Ratio, median [3, 14]: 44.9 (ng/mL)/(mg/kg/day)
- Tacrolimus Concentration, median [3, 14]: 5.0 ng/mL
- Tacrolims C/D Ratio, median [3, 15]: 50.4 (ng/mL)/(mg/kg/day)
- Tacrolimus Concentration, median [3, 15]: 7.5 ng/mL
- ΔC/D Ratio, median [3, 16]: 18.3
- ΔConcentration, median [3, 16]: 3.3 ng/mL
- Percent change in tacrolimus C/D ratio after the switching, median (range) [3, 17]: 41.8% and 41.8 (2.7–129.8) %
- Percent change in tacrolimus concentration after the switching, median (range) [3, 17]: 65.8% and 65.8 (0.0–192.5) %
- Trough tacrolimus concentration, typical case ([3]; after switching to vonoprazan): 9.4 to 10.7 ng/mL
- C/D ratio of tacrolimus, typical case ([3]; rabeprazole phase): 26.2–29.0
- Trough tacrolimus concentration, typical case ([3]; rabeprazole phase): 3.8 to 4.7 ng/mL
- C/D ratio of tacrolimus, typical case ([3]; vonoprazan phase, 10 mg, before dose escalation): 33.6–37.1
- C/D ratio of tacrolimus, typical case ([3]; vonoprazan phase, after escalation to 20 mg): 41.3–48.8
- Elevation in C/D ratio of tacrolimus [3, 18]: 1.4 fold
- Elevation in blood concentration of tacrolimus [3, 18]: 1.7 fold
- Percentage increase of the C/D ratio ([3]; CYP3A5*1 carriers): 44.4%
- Percentage increase of the C/D ratio ([3]; CYP3A5*1 noncarriers): 39.1%
- Tacrolimus trough concentration, median (range) ([3]; with rabeprazole, before switching): 5.2 (3.6–7.4) ng/mL
- Tacrolimus trough concentration, median (range) ([3]; with vonoprazan, after switching): 8.1 (6.1–11.7) ng/mL
- Tacrolimus C/D ratio, median (range) ([3]; with rabeprazole, before switching, 18 recipients): 38.1 (16.5–138.1) (ng/mL)/(mg/kg)
- Tacrolimus C/D ratio, median (range) ([3]; with vonoprazan, 7 days after initiating, 18 recipients): 48.9 (26.6–207.2) (ng/mL)/(mg/kg)
SMILES: C=CC[C@@H]1/C=C(\C)C[C@H](C)C[C@H](OC)[C@H]2O[C@@](O)(C(=O)C(=O)N3CCCC[C@H]3C(=O)O[C@H](/C(C)=C/[C@@H]3CC[C@@H](O)[C@H](OC)C3)[C@H](C)[C@@H](O)CC1=O)[C@H](C)C[C@@H]2OC [Tacrolimus]
- Adverse events ([4]; all patients, after switching to vonoprazan, tacrolimus kept in therapeutic range): No adverse event was observed
- Increase in C/D ratio of tacrolimus after the conversion ([5]; ref 27): 10.6%
- Increase in C/D ratio of tacrolimus after the conversion ([5]; ref 30): no increase
- Increase of the C/D ratio of tacrolimus after switching rabeprazole to vonoprazan ([5]; outpatients 2–7 years post-transplantation): 1.1 fold
- Increase of tacrolimus trough levels after switching to vonoprazan ([5]; outpatients, even in the CYP2C19 IM/PM in the CYP3A5*1 noncarriers): no significant increase
- Therapeutic range of blood concentration [6]: 5 to 15 ng/mL

- Estimated maximum concentration in the intestinal lumen ([1]; administered at 20 mg): 231 µM
- Alanine aminotransferase, median (range) [2]: 22 IU/L
- Aspartate aminotransferase, median (range) [2]: 15 IU/L
- Blood urine nitrogen, median (range) [2]: 17.4 (7.5–45.4) mg/dL
- Serum creatinine, median (range) [2]: 1.21 (0.58–2.84) mg/dL
SMILES: CNCc1cc(-c2ccccc2F)n(S(=O)(=O)c2cccnc2)c1.O=C(O)/C=C/C(=O)O [Vonoprazan, 1-[5-(2-Fluorophenyl)-1-(pyridin-3-ylsulfonyl)-1H-pyrrol-3-yl]-N-methylmethanamine monofumarate]
- Major symptoms due to gastric ulcer, retching and heartburn ([4]; switching from rabeprazole to vonoprazan): disappeared
- IC50 (P-glycoprotein): 50 µM
